According to article PMC5218480 (PLoS ONE, 2017):

System: MV-4-11 cells
Test: Gene expression microarray analysis (Affymetrix PrimeView) and GSEA
Assay type: cell-based, human
Design: RFU PODN (11730768_x_at) / Fold change /veh PODN (11730768_x_at) / RFU LINC00158 (11744669_a_at) / Fold change /veh LINC00158 (11744669_a_at) / RFU DUSP10 (11751237_a_at) / Fold change /veh DUSP10 (11751237_a_at) / RFU ID3 (11757404_x_at) / Fold change /veh ID3 (11757404_x_at) / RFU PLEKHG5 (11737974_s_at) / Fold change /veh PLEKHG5 (11737974_s_at) / RFU LRRC4B (11730491_at) / Fold change /veh LRRC4B (11730491_at) / RFU GIMAP4 (11747438_a_at) / Fold change /veh GIMAP4 (11747438_a_at) / RFU KRT8 (11758183_x_at) / Fold change /veh KRT8 (11758183_x_at) / RFU CNN1 (11734310_a_at) / Fold change /veh CNN1 (11734310_a_at) / RFU VPS37D (11726825_at) / Fold change /veh VPS37D (11726825_at) / RFU C10orf10 (11716522_x_at) / Fold change /veh C10orf10 (11716522_x_at) / RFU KIR2DL2 /// KIR2DL4 /// KIR2DL5A /// KIR2DL5B /// KIR2DS1 /// KIR2DS2 /// KIR2DS3 /// KIR2DS4 /// KIR3DL3 /// KIR3DL3 /// KIR3DS1 (11738374_at) / Fold change /veh KIR2DL2 /// KIR2DL4 /// KIR2DL5A /// KIR2DL5B /// KIR2DS1 /// KIR2DS2 /// KIR2DS3 /// KIR2DS4 /// KIR3DL3 /// KIR3DL3 /// KIR3DS1 (11738374_at) / RFU C1QL1 (11718748_at) / Fold change /veh C1QL1 (11718748_at) / RFU TMPRSS4 (11747572_a_at) / Fold change /veh TMPRSS4 (11747572_a_at) / RFU HAMP (11756126_x_at) / Fold change /veh HAMP (11756126_x_at) / RFU RNFT2 (11725882_a_at) / Fold change /veh RNFT2 (11725882_a_at) / RFU NR4A2 (11747474_a_at) / Fold change /veh NR4A2 (11747474_a_at) / RFU ABCC12 (11746883_a_at) / Fold change /veh ABCC12 (11746883_a_at) / RFU TMEM136 (11760407_x_at) / Fold change /veh TMEM136 (11760407_x_at) / RFU CLDN22 /// WWC2 (11732394_at) / Fold change /veh CLDN22 /// WWC2 (11732394_at) / RFU HLA-DPB1 (11760878_x_at) / Fold change /veh HLA-DPB1 (11760878_x_at) / RFU SPINT1 (11716480_a_at) / Fold change /veh SPINT1 (11716480_a_at) / RFU GAP43 (11754022_s_at) / Fold change /veh GAP43 (11754022_s_at) / RFU A4GNT (11735810_at) / Fold change /veh A4GNT (11735810_at) / RFU PRB3 (11715151_x_at) / Fold change /veh PRB3 (11715151_x_at) / RFU TUBB4B (11761932_at) / Fold change /veh TUBB4B (11761932_at) / RFU CAPN14 (11732068_a_at) / Fold change /veh CAPN14 (11732068_a_at) / RFU TMCC2 (11721928_a_at) / Fold change /veh TMCC2 (11721928_a_at) / RFU IRGQ (11745062_a_at) / Fold change /veh IRGQ (11745062_a_at) / RFU FAM174B (11720279_a_at) / Fold change /veh FAM174B (11720279_a_at) / RFU TMPRSS4 (11748680_a_at) / Fold change /veh TMPRSS4 (11748680_a_at) / RFU FAM212B (11763350_a_at) / Fold change /veh FAM212B (11763350_a_at) / RFU PLEKHG5 (11743358_a_at) / Fold change /veh PLEKHG5 (11743358_a_at) / RFU ZSCAN30 (11745921_a_at) / Fold change /veh ZSCAN30 (11745921_a_at) / RFU CMKLR1 (11741424_a_at) / Fold change /veh CMKLR1 (11741424_a_at) / RFU LOC101060620 /// MAPK8IP1 (11723275_at) / Fold change /veh LOC101060620 /// MAPK8IP1 (11723275_at) / RFU SPTSSB (11747773_x_at) / Fold change /veh SPTSSB (11747773_x_at) / RFU PRSS12 (11739890_at) / Fold change /veh PRSS12 (11739890_at) / RFU BIN1 (11741810_x_at) / Fold change /veh BIN1 (11741810_x_at) / RFU WNT11 (11732464_a_at) / Fold change /veh WNT11 (11732464_a_at) / RFU C10orf10 (11716521_a_at) / Fold change /veh C10orf10 (11716521_a_at) / RFU C5orf56 (11738089_at) / Fold change /veh C5orf56 (11738089_at) / RFU CYB561 (11721691_x_at) / Fold change /veh CYB561 (11721691_x_at) / RFU ANKRD19P (11752326_a_at) / Fold change /veh ANKRD19P (11752326_a_at) / RFU OR2T12 /// OR2T33 /// OR2T8 (11738714_s_at) / Fold change /veh OR2T12 /// OR2T33 /// OR2T8 (11738714_s_at) / RFU VCAN (11748164_a_at) / Fold change /veh VCAN (11748164_a_at) / RFU JSRP1 (11732532_at) / Fold change /veh JSRP1 (11732532_at) / RFU KRTAP10-11 (11738290_x_at) / Fold change /veh KRTAP10-11 (11738290_x_at) / RFU MYO3A (11730013_a_at) / Fold change /veh MYO3A (11730013_a_at) / RFU EBF3 (11725865_a_at) / Fold change /veh EBF3 (11725865_a_at) / RFU CAMK2N1 (11719241_x_at) / Fold change /veh CAMK2N1 (11719241_x_at) / RFU C5orf56 (11738088_a_at) / Fold change /veh C5orf56 (11738088_a_at) / RFU OLFML3 (11715873_a_at) / Fold change /veh OLFML3 (11715873_a_at) / RFU LOC100653217 /// NTM (11731650_a_at) / Fold change /veh LOC100653217 /// NTM (11731650_a_at) / RFU MAPK11 (11762145_a_at) / Fold change /veh MAPK11 (11762145_a_at) / RFU FIZ1 (11724087_x_at) / Fold change /veh FIZ1 (11724087_x_at) / RFU OASL (11726364_x_at) / Fold change /veh OASL (11726364_x_at) / RFU SOX15 (11748057_x_at) / Fold change /veh SOX15 (11748057_x_at) / RFU CD79A (11719716_a_at) / Fold change /veh CD79A (11719716_a_at) / RFU HIST1H1D (11736915_at) / Fold change /veh HIST1H1D (11736915_at) / RFU CASKIN2 (11723855_a_at) / Fold change /veh CASKIN2 (11723855_a_at) / RFU LOC730098 (11760151_x_at) / Fold change /veh LOC730098 (11760151_x_at) / RFU OR4N2 (11742367_at) / Fold change /veh OR4N2 (11742367_at) / RFU PRRT2 (11749266_a_at) / Fold change /veh PRRT2 (11749266_a_at) / RFU SNX32 (11753110_a_at) / Fold change /veh SNX32 (11753110_a_at) / RFU CDHR5 (11726645_a_at) / Fold change /veh CDHR5 (11726645_a_at) / RFU RCAN1 (11760418_a_at) / Fold change /veh RCAN1 (11760418_a_at) / RFU FAM167A (11723789_a_at) / Fold change /veh FAM167A (11723789_a_at) / RFU FAM26E (11764081_at) / Fold change /veh FAM26E (11764081_at) / RFU ISYNA1 (11749810_s_at) / Fold change /veh ISYNA1 (11749810_s_at) / RFU ACY1 (11761880_at) / Fold change /veh ACY1 (11761880_at) / RFU 11764098_at / Fold change /veh 11764098_at / RFU SAMD14 (11745864_x_at) / Fold change /veh SAMD14 (11745864_x_at) / RFU NPB (11741838_a_at) / Fold change /veh NPB (11741838_a_at) / RFU TMPRSS6 (11731388_a_at) / Fold change /veh TMPRSS6 (11731388_a_at) / RFU KRTAP10-2 (11738614_at) / Fold change /veh KRTAP10-2 (11738614_at) / RFU ARHGAP8 /// PRR5-ARHGAP8 (11727945_x_at) / Fold change /veh ARHGAP8 /// PRR5-ARHGAP8 (11727945_x_at) / RFU KRTAP5-7 /// NADSYN1 (11734609_at) / Fold change /veh KRTAP5-7 /// NADSYN1 (11734609_at) / RFU RASL12 (11751679_a_at) / Fold change /veh RASL12 (11751679_a_at) / RFU CDKN2B (11736163_a_at) / Fold change /veh CDKN2B (11736163_a_at) / RFU PRF1 (11729649_at) / Fold change /veh PRF1 (11729649_at) / RFU, ZNF638 /// ZNF638-IT1 / Fold change vs veh, ZNF638 /// ZNF638-IT1 / RFU, PANK3 / Fold change vs veh, PANK3 / RFU, SH3YL1 / Fold change vs veh, SH3YL1 / RFU, ZEB2 / Fold change vs veh, ZEB2 / RFU, NRIP1 / Fold change vs veh, NRIP1 / RFU, PTTG1IP / Fold change vs veh, PTTG1IP / RFU, CAPN2 / Fold change vs veh, CAPN2 / RFU, MED14 / Fold change vs veh, MED14 / RFU, SNORA58 / Fold change vs veh, SNORA58 / RFU, C1orf63 / Fold change vs veh, C1orf63 / RFU, LRRFIP1 / Fold change vs veh, LRRFIP1 / RFU, NDUFAF7 / Fold change vs veh, NDUFAF7 / RFU, SLC12A2 / Fold change vs veh, SLC12A2 / RFU, IBTK / Fold change vs veh, IBTK / RFU, ESF1 / Fold change vs veh, ESF1 / Fold change vs veh, TMEM50B / RFU, TAOK1 / Fold change vs veh, TAOK1 / RFU, ACBD3 / Fold change vs veh, ACBD3 / RFU, TMA16 / Fold change vs veh, TMA16 / RFU, RWDD3 / Fold change vs veh, RWDD3 / RFU, BCAT1 / Fold change vs veh, BCAT1 / RFU, EDEM3 / Fold change vs veh, EDEM3 / RFU, TMEM33 / Fold change vs veh, TMEM33 / RFU, WDR75 / Fold change vs veh, WDR75 / RFU, AHCTF1 / Fold change vs veh, AHCTF1 / RFU, TFRC / Fold change vs veh, TFRC / RFU, ZDHHC17 / Fold change vs veh, ZDHHC17 / RFU, NOM1 / Fold change vs veh, NOM1 / RFU, ARL8B / Fold change vs veh, ARL8B / RFU, ZBTB11 / Fold change vs veh, ZBTB11 / RFU, TAMM41 / Fold change vs veh, TAMM41 / RFU, KIAA1704 /// LOC100996395 / Fold change vs veh, KIAA1704 /// LOC100996395 / RFU, ING1 / Fold change vs veh, ING1 / RFU, TRMT61B / Fold change vs veh, TRMT61B / RFU, FUBP3 / Fold change vs veh, FUBP3 / RFU, TP53 / Fold change vs veh, TP53 / RFU, TNKS2 / Fold change vs veh, TNKS2 / RFU, ZFP14 / Fold change vs veh, ZFP14 / RFU, ACTR2 / Fold change vs veh, ACTR2 / RFU, PPP3R1 / Fold change vs veh, PPP3R1 / RFU, PIK3R1 / Fold change vs veh, PIK3R1 / RFU, HNRNPA1 / Fold change vs veh, HNRNPA1 / RFU, RNF170 / Fold change vs veh, RNF170 / RFU, ZNF28 / Fold change vs veh, ZNF28 / RFU, RNGTT / Fold change vs veh, RNGTT / RFU, OGT / Fold change vs veh, OGT / RFU, BRD1 / Fold change vs veh, BRD1 / RFU, MARS / Fold change vs veh, MARS / RFU, ZNF655 / Fold change vs veh, ZNF655 / RFU, FAHD1 / Fold change vs veh, FAHD1 / RFU, BDP1 / Fold change vs veh, BDP1 / RFU, LRRCC1 / Fold change vs veh, LRRCC1 / RFU, ARID1A / Fold change vs veh, ARID1A / RFU, ZNF146 / Fold change vs veh, ZNF146 / RFU, ZNF330 / Fold change vs veh, ZNF330 / RFU, GPN3 / Fold change vs veh, GPN3 / RFU, C9orf123 / Fold change vs veh, C9orf123 / RFU, N4BP2L2 / Fold change vs veh, N4BP2L2 / RFU, ARFIP1 / Fold change vs veh, ARFIP1 / RFU, FAM179B / Fold change vs veh, FAM179B / RFU, BCL10 / Fold change vs veh, BCL10 / RFU, UHRF1BP1L / Fold change vs veh, UHRF1BP1L / RFU, BET1 / Fold change vs veh, BET1 / RFU, CNOT2 / Fold change vs veh, CNOT2 / RFU, ZNF268 / Fold change vs veh, ZNF268 / Fold change vs veh, ZNF507 / RFU, DGCR2 / Fold change vs veh, DGCR2 / RFU, WDSUB1 / Fold change vs veh, WDSUB1 / Fold change vs veh, HSP90B1 /// MIR3652 / RFU, ADSS / Fold change vs veh, ADSS / RFU, GK / Fold change vs veh, GK / RFU, ZNF148 / Fold change vs veh, ZNF148 / RFU, TAF9 / Fold change vs veh, TAF9 / RFU, SLC1A5 / Fold change vs veh, SLC1A5 / RFU, SLMO2 / Fold change vs veh, SLMO2 / RFU, ABCC4 / Fold change vs veh, ABCC4 / RFU, LOC101060439 /// RAP1B / Fold change vs veh, LOC101060439 /// RAP1B / RFU, RFX7 / Fold change vs veh, RFX7 / RFU, GTPBP10 / Fold change vs veh, GTPBP10 / RFU, CNEP1R1 / Fold change vs veh, CNEP1R1 / RFU, BIVM-ERCC5 /// ERCC5 / Fold change vs veh, BIVM-ERCC5 /// ERCC5 / RFU, ILF3 / Fold change vs veh, ILF3 / RFU 11762660_at / Fold change /veh 11762660_at / RFU VCAN (11757783_s_at) / Fold change /veh VCAN (11757783_s_at) / RFU DDX43 (11728927_at) / Fold change /veh DDX43 (11728927_at) / RFU KRT8 (11758188_x_at) / Fold change /veh KRT8 (11758188_x_at) / RFU NKD1 (11759106_at) / Fold change /veh NKD1 (11759106_at) / RFU SRD5A1 (11742802_a_at) / Fold change /veh SRD5A1 (11742802_a_at) / RFU TPSAB1 /// TPSB2 (11721975_s_at) / Fold change /veh TPSAB1 /// TPSB2 (11721975_s_at) / RFU GSTM3 (11746129_a_at) / Fold change /veh GSTM3 (11746129_a_at) / RFU IL23R (11737362_x_at) / Fold change /veh IL23R (11737362_x_at) / RFU TMEM51 (11727254_a_at) / Fold change /veh TMEM51 (11727254_a_at) / RFU PIWIL2 (11732686_x_at) / Fold change /veh PIWIL2 (11732686_x_at) / RFU ORM1 (11744905_x_at) / Fold change /veh ORM1 (11744905_x_at) / RFU CCDC152 (11743942_at) / Fold change /veh CCDC152 (11743942_at) / RFU ECM1 (11717891_a_at) / Fold change /veh ECM1 (11717891_a_at) / RFU IL23R (11748794_a_at) / Fold change /veh IL23R (11748794_a_at) / RFU TNFAIP8L3 (11732012_x_at) / Fold change /veh TNFAIP8L3 (11732012_x_at) / RFU MBOAT4 (11741988_at) / Fold change /veh MBOAT4 (11741988_at) / RFU 11764193_at / Fold change /veh 11764193_at / RFU TMEM53 (11763286_at) / Fold change /veh TMEM53 (11763286_at) / RFU MAGEB2 (11727129_at) / Fold change /veh MAGEB2 (11727129_at) / RFU TMEM200A (11744735_a_at) / Fold change /veh TMEM200A (11744735_a_at) / RFU CCDC152 (11751479_a_at) / Fold change /veh CCDC152 (11751479_a_at) / RFU FAM211A (11726209_a_at) / Fold change /veh FAM211A (11726209_a_at) / RFU RGS16 (11746705_a_at) / Fold change /veh RGS16 (11746705_a_at) / RFU VCAN (11755009_s_at) / Fold change /veh VCAN (11755009_s_at) / RFU RHOB (11743442_s_at) / Fold change /veh RHOB (11743442_s_at) / RFU RGS16 (11720943_a_at) / Fold change /veh RGS16 (11720943_a_at) / RFU RGS16 (11720944_at) / Fold change /veh RGS16 (11720944_at) / RFU, VPS4B / Fold change vs veh, VPS4B / RFU, CREB1 / Fold change vs veh, CREB1 / RFU, DNAJC13 / Fold change vs veh, DNAJC13 / RFU, GNAQ / Fold change vs veh, GNAQ / RFU, CDK5R1 / Fold change vs veh, CDK5R1 / RFU, ZRANB3 / Fold change vs veh, ZRANB3 / RFU, CUL4A / Fold change vs veh, CUL4A / RFU, CCNY / Fold change vs veh, CCNY / RFU, UFL1 / Fold change vs veh, UFL1 / RFU, COG3 / Fold change vs veh, COG3 / RFU, DIAPH2 / Fold change vs veh, DIAPH2 / RFU, SKA2 / Fold change vs veh, SKA2 / RFU, AFF3 / Fold change vs veh, AFF3 / RFU, LMF1 / Fold change vs veh, LMF1 / RFU, IPO11 / Fold change vs veh, IPO11 / RFU, DFFB / Fold change vs veh, DFFB / RFU, FOXP1 / Fold change vs veh, FOXP1 / RFU, CARD8 / Fold change vs veh, CARD8 / RFU, STRN3 / Fold change vs veh, STRN3 / RFU, ADK / Fold change vs veh, ADK / RFU, RASSF2 / Fold change vs veh, RASSF2 / RFU, WIPF1 / Fold change vs veh, WIPF1 / RFU, LARP1B / Fold change vs veh, LARP1B / RFU, RASA1 / Fold change vs veh, RASA1 / RFU, RB1 / Fold change vs veh, RB1 / RFU, PPFIA1 / Fold change vs veh, PPFIA1 / RFU, MAT2A / Fold change vs veh, MAT2A / RFU, CCT5 / Fold change vs veh, CCT5 / RFU, WDR92 / Fold change vs veh, WDR92 / RFU, CUX1 / Fold change vs veh, CUX1 / RFU, TTC7A / Fold change vs veh, TTC7A / RFU, TMEM135 / Fold change vs veh, TMEM135 / RFU, DEPTOR / Fold change vs veh, DEPTOR / RFU, CPM / Fold change vs veh, CPM / RFU, DNAJB6 / Fold change vs veh, DNAJB6 / RFU, CACNA2D3 / Fold change vs veh, CACNA2D3 / RFU, DTX4 / Fold change vs veh, DTX4 / RFU, TFCP2 / Fold change vs veh, TFCP2 / RFU, GMCL1 /// GMCL1P1 / Fold change vs veh, GMCL1 /// GMCL1P1 / RFU, AEBP2 / Fold change vs veh, AEBP2 / RFU, SNHG1 /// SNORD22 /// SNORD25 /// SNORD26 /// SNORD27 /// SNORD28 /// SNORD29 /// SNORD31 / Fold change vs veh, SNHG1 /// SNORD22 /// SNORD25 /// SNORD26 /// SNORD27 /// SNORD28 /// SNORD29 /// SNORD31 / Fold change (Aza/veh), C12orf56 (ProbeSet 11735607_a_at) / Fold change (ACY-1035/veh), C12orf56 (ProbeSet 11735607_a_at) / Fold change (Aza/veh), FGFR1OP (ProbeSet 11751329_s_at) / Fold change (ACY-1035/veh), FGFR1OP (ProbeSet 11751329_s_at) / Fold change (Aza/veh), VPS36 (ProbeSet 11739960_a_at) / Fold change (ACY-1035/veh), VPS36 (ProbeSet 11739960_a_at) / RFU SYPL1 (11715823_x_at) / Fold change /veh SYPL1 (11715823_x_at) / RFU IGFBP7 (11715501_s_at) / Fold change /veh IGFBP7 (11715501_s_at) / RFU REEP3 (11722064_at) / Fold change /veh REEP3 (11722064_at) / RFU IGLL1 (11728026_x_at) / Fold change /veh IGLL1 (11728026_x_at): dose or concentration left out as unconfirmed
Conditions: MV-4-11 cells, 48 hours

Compound: Nc1ncn([C@@H]2O[C@H](CO)[C@@H](O)[C@H]2O)c(=O)n1 [azacitidine]
- RFU KRTAP10-2 (11738614_at): 10.93 RFU
